{
  "source": "patent US20080317805A1",
  "about": "“LOCALLY ADMINISTRATED LOW DOSES OF CORTICOSTEROIDS” (priority 2007, published 2008)",
  "key": {"[1]": {"tested_on": "rat chronic constriction injury (CCI) model", "assay": "Thermal hyperalgesia (paw withdrawal latency), systemically administered fluocinolone, rat CCI model", "assay_type": "in vivo", "procedure": "(§1) The purpose of this study is to evaluate the efficacy of fluocinolone acetonide (Sigma Cat# F8880-25MG; Sigma Aldrich, St. Louis, Mo.), a potent corticosteroid, to reduce neuropathic pain in an animal model. This animal model involves pain-associated behaviors in male Wistar rats (300-326 g) following chronic constriction injury (CCI) induced by a procedure similar to that described by Bennett and Xie (1988). Under 2% isoflurane anesthesia, the rat's common sciatic nerve is exposed and freed from adherent tissue at mid-thigh by separating the muscle (biceps femoris) by blunt dissection. Four loose ligatures are placed 1 mm apart, using chromic gut (4-0 absorbable suture, Jorgensen Laboratories, Inc. Loveland, Colo.).\n(§2) After CCI induction, each group (n=7) receive treatment via systemic injection. Vehicle control animals (Group 1) receive 1× phosphate buffered solution (PBS) intraperitoneally (IP) every three days, beginning the day of surgery (Day 0), etanercept (Group 2; 3 mg/kg) is administered IP every 3 days beginning Day 0. Animals in treatment Groups 3, 4 and 5 receive fluocinolone (0.5, 5, or 25 μg/kg) subcutaneously (SC) every day beginning Day 0.\n(§3) Thermal hyperalgesia is measured using a plantar analgesia instrument (Stoelting, Wood Dale, Ill.). Prior to testing, each animal is placed on the plantar test apparatus, a clear plastic chamber, and is allowed to rest/acclimate for 15 minutes. A radiant (heat) beam stimulus is applied to the CCI paw of each animal. After paw withdrawal, an automated control interrupts both the stimulus and the timer. The heat source device is set at intensity 50, and a maximal cut-off at 15 seconds is set to prevent tissue damage. Thermal hyperalgesia paw withdrawal latency response of the injured site (right hind paw) of each animal is measured 2 days prior to CCI surgery (pre-injury baseline) on Days 7, 14, and 21 after surgery. Data from each test is analyzed by one-way ANOVA."}, "[2]": {"tested_on": "rat chronic constriction injury (CCI) model", "assay": "Mechanical allodynia (von Frey 50% paw withdrawal threshold), systemically administered fluocinolone, rat CCI model", "assay_type": "in vivo", "procedure": "as §1, §2\n(§4) Mechanical allodynia is measured using von Frey monofilament test (Stoelting, Wood Dale, Ill.). The plantar surface of the CCI paw of each animal is tested as described by Chaplan et al. (1994). Each animal is placed in a suspended clear plastic chamber with a wire mesh bottom. Prior to testing, each animal is acclimated for 15 minutes. The 50% paw withdrawal threshold response is determined by sequentially increasing or decreasing the stimulus strength according to the “up-down method” of Dixon (1980).\nTesting begins with a filament with a buckling weight of 2.0 g and continued through a series of filaments applied in sequence, up to about 15 g. Each filament is applied with enough pressure to cause a buckle effect. The absence of a paw lifting/withdrawal response after 5 seconds prompts the use of the filament to the next higher weight. Paw withdrawal, indicates a positive response. The testing continues for four additional measurements and is used to calculate the response threshold. Four consecutive positive responses receive a score of 0.25 g, and five consecutive negative responses (i.e., no paw withdrawal) receives a score of 15 g. The mechanical paw withdrawal threshold of each animal is measured one day prior to surgery (per-surgical baseline) and on Days 8, 15, and 22.\n(§5) The 50% paw withdrawal threshold is calculated (PWT; Luo and Calcutt, 2002, Chaplan et al. 1994) using the formula 10 (Xf+?d)/10,000, where Xf is the final von Frey filament used (log units), ? is a value that analyzes the response pattern (taken from the table published by Chaplan at al., 1994), and d is the mean difference between stimuli (log units). Data is analyzed using one-way ANOVA on each test."}, "[3]": {"assay": "Body weight gain during daily SC fluocinolone in CCI rats", "assay_type": "in vivo, rat", "conditions": "for body weight difference to vehicle controls: 25 μg/kg SC daily", "procedure": "as §1, §2"}, "[4]": {"tested_on": "rat chronic constriction injury (CCI) model", "assay": "Thermal paw withdrawal latency, local pump delivery, rat CCI model", "assay_type": "in vivo", "conditions": "0.0032, 0.016, and 0.08 ng/hour by osmotic mini-pump, perineural; p<0.05", "procedure": "as §3\nFollowing the above experiments, the efficacy of locally administered, low dose of fluocinolone acetonide (Sigma Cat# F8880-25MG; Lot# 043K1167, Sigma Aldrich) and dexamethasone (Sigma Aldrich) is examined in the same CCI rat model. […]\nFluocinolone is administered at doses of 0.0032 ng/hour (0.02304 ng/kg/day), 0.016 ng/hour (0.1152 ng/kg/day), and 0.08 ng/hour (0.576 ng/kg/day). […] Thermal hyperalgesia, induced and measured as described above, is measured on Days −2, 7, 14, and 21. Mechanical allodynia, induced and measured as described above, is measured on Days −1, 8, 15, and 22."}, "[5]": {"tested_on": "rat chronic constriction injury (CCI) model", "assay": "Von Frey mechanical threshold, local pump delivery, rat CCI model", "assay_type": "in vivo", "conditions": "0.0032, 0.016, 0.08 ng/hour by pump, each day tested; not statistically significant", "procedure": "as §4\nTesting begins with a filament with a buckling weight of 2.0 g and continued through a series of filaments applied in sequence, up to about 15 g. Each filament is applied with enough pressure to cause a buckle effect. The absence of a paw lifting/withdrawal response after 5 seconds prompts the use of the filament to the next higher weight. […] The mechanical paw withdrawal threshold of each animal is measured one day prior to surgery (per-surgical baseline) and on Days 8, 15, and 22.\nas §5, with “test. […]” for “test.”"}},
  "note": "“Also recorded” adds a separate entry of the source.",
  "data": [
    {"smiles": "CC1(C)O[C@@H]2C[C@H]3[C@@H]4C[C@H](F)C5=CC(=O)C=C[C@]5(C)[C@@]4(F)[C@@H](O)C[C@]3(C)[C@]2(C(=O)CO)O1", "note": "[Fluocinolone, fluocinolone acetonide]", "values": [
      {"measurement": "Thermal Paw Withdrawal Latencies as Percent Baseline, Mean", "setting": "[1]; 0.5 μg/kg every day, Day 7", "result": 71.6, "unit": "Percent Baseline"},
      {"measurement": "Thermal Paw Withdrawal Latencies as Percent Baseline, Mean", "setting": "[1]; 0.5 μg/kg every day, Day 14", "result": 70.8, "unit": "Percent Baseline"},
      {"measurement": "Thermal Paw Withdrawal Latencies as Percent Baseline, Mean", "setting": "[1]; 0.5 μg/kg every day, Day 21", "result": 63.1, "unit": "Percent Baseline"},
      {"measurement": "thermal latency, t-test compared to etanercept", "setting": "[1]; 0.5 μg/kg, Day 7, p<0.05", "result": "significant increase in latency on Day 7"},
      {"measurement": "thermal latency, t-test compared to etanercept", "setting": "[1]; 0.5 μg/kg, Days 14 and 21, n.s.", "result": "not on Days 14 and 21"},
      {"measurement": "thermal latencies compared with etanercept", "setting": "[1]; 0.5 μg/kg/day, only statistically significant on Day 7", "result": "tends to improve thermal latencies over etanercept"},
      {"measurement": "Thermal Paw Withdrawal Latencies as Percent Baseline, Mean", "setting": "[1]; 5 μg/kg every day, Day 7", "result": 79.7, "unit": "Percent Baseline"},
      {"measurement": "Thermal Paw Withdrawal Latencies as Percent Baseline, Mean", "setting": "[1]; 5 μg/kg every day, Day 14", "result": 83.8, "unit": "Percent Baseline"},
      {"measurement": "Thermal Paw Withdrawal Latencies as Percent Baseline, Mean", "setting": "[1]; 5 μg/kg every day, Day 21", "result": 80.2, "unit": "Percent Baseline"},
      {"measurement": "thermal latency, t-test compared to etanercept", "setting": "[1]; 5 μg/kg, Days 7, 14, 21, p<0.05", "result": "significant increase in latency on all testing days"},
      {"measurement": "Thermal Paw Withdrawal Latencies as Percent Baseline, Mean", "setting": "[1]; 25 μg/kg every day, Day 7", "result": 67.4, "unit": "Percent Baseline"},
      {"measurement": "Thermal Paw Withdrawal Latencies as Percent Baseline, Mean", "setting": "[1]; 25 μg/kg every day, Day 14", "result": 80.9, "unit": "Percent Baseline"},
      {"measurement": "Thermal Paw Withdrawal Latencies as Percent Baseline, Mean", "setting": "[1]; 25 μg/kg every day, Day 21", "result": 80.0, "unit": "Percent Baseline"},
      {"measurement": "thermal latency relative to vehicle controls", "setting": "[1]; 0.5, 5 and 25 μg/kg/day SC, Days 7, 14, 21, p<0.05", "result": "increase in thermal latency relative to vehicle controls; also recorded: significantly increases the paw withdrawal latency period; also recorded: significant increase in thermal latency"},
      {"measurement": "thermal hyperalgesia compared with etanercept", "setting": "[1]; 5 and 25 μg/kg/day, all days tested, etanercept 3 mg/kg IP every 3 days, ANOVA p<0.05", "result": "improves thermal hyperalgesia significantly greater than etanercept"},
      {"measurement": "thermal latency, 5 μg/kg dose compared with 25 μg/kg dose", "setting": "[1]; Day 7, Fisher LSD, p<0.05", "result": "significantly more effective than 25 μg/kg dose"},
      {"measurement": "thermal latency, 5 and 25 μg/kg doses compared with 0.5 μg/kg dose", "setting": "[1]; Days 14 and 21, Fisher LSD, p<0.05", "result": "significantly more effective than the 0.5 μg/kg dose"},
      {"measurement": "Von Frey Filament \"Allodynia\" Latencies as Percent of Baseline, Mean", "setting": "[2]; 0.5 μg/kg every day, Day 8", "result": "45.2% of Baseline"},
      {"measurement": "Von Frey Filament \"Allodynia\" Latencies as Percent of Baseline, Mean", "setting": "[2]; 0.5 μg/kg every day, Day 15", "result": "47.1% of Baseline"},
      {"measurement": "Von Frey Filament \"Allodynia\" Latencies as Percent of Baseline, Mean", "setting": "[2]; 0.5 μg/kg every day, Day 22", "result": "66.2% of Baseline"},
      {"measurement": "Von Frey Filament \"Allodynia\" Latencies as Percent of Baseline, Mean", "setting": "[2]; 5 μg/kg every day, Day 8", "result": "54.8% of Baseline"},
      {"measurement": "Von Frey Filament \"Allodynia\" Latencies as Percent of Baseline, Mean", "setting": "[2]; 5 μg/kg every day, Day 15", "result": "57.5% of Baseline"},
      {"measurement": "Von Frey Filament \"Allodynia\" Latencies as Percent of Baseline, Mean", "setting": "[2]; 5 μg/kg every day, Day 22", "result": "55.2% of Baseline"},
      {"measurement": "Von Frey Filament \"Allodynia\" Latencies as Percent of Baseline, Mean", "setting": "[2]; 25 μg/kg every day, Day 8", "result": "76.3% of Baseline"},
      {"measurement": "Von Frey Filament \"Allodynia\" Latencies as Percent of Baseline, Mean", "setting": "[2]; 25 μg/kg every day, Day 15", "result": "68.9% of Baseline"},
      {"measurement": "Von Frey Filament \"Allodynia\" Latencies as Percent of Baseline, Mean", "setting": "[2]; 25 μg/kg every day, Day 22", "result": "70.3% of Baseline"},
      {"measurement": "mechanical allodynia compared with etanercept", "setting": "[2]; 0.5, 5, 25 μg/kg/day, not statistically significant", "result": "tend to improve mechanical allodynia over etanercept; also recorded: does not reveal any significant differences"},
      {"measurement": "mechanical allodynia compared with vehicle controls", "setting": "[2]; 0.5, 5, or 25 μg/kg/day SC, overall ANOVA", "result": "significantly improves (overall ANOVA) mechanical allodynia"},
      {"measurement": "body weight gain compared with vehicle controls", "setting": "[3]; 25 μg/kg SC daily for 21 days", "result": "significant decrease in body weight gain"},
      {"measurement": "body weight difference to vehicle controls", "setting": "[3]; Day 5", "result": "~10", "unit": "g"},
      {"measurement": "body weight difference to vehicle controls", "setting": "[3]; by Day 22", "result": "~50", "unit": "g"},
      {"measurement": "body weight gain", "setting": "[3]; 0.5 or 5 μg/kg SC daily for 21 days", "result": "does not have any effect on body weight gain"},
      {"measurement": "thermal paw withdrawal latency compared to PBS", "setting": "[4]", "result": "increases in the thermal paw withdrawal latency tests compared to PBS"},
      {"measurement": "mechanical threshold (von Frey)", "setting": "[5]", "result": "increases in the mechanical threshold"}
    ]}
  ]
}
